Experimental data taken from US10377717B2, “Farnesoid X receptor agonists and uses thereof” (Metacrine, Inc., priority 2015, dated 2019).

Target: hFXR (Homo sapiens (Human), UniProt Q96RI1)
Test: In Vitro FXR Assay (TK), luciferase reporter in transfected CV-1 cells
Format: cell-based
Details: TK-ECRE-luc reporter, hFXR/hRXR, 18 hrs, maximum efficacy <25% of Fexaramine control classified as '+'
Method: CV-1 cells were seeded at a density of 2,000,000 cells in a T175 flask with DMEM+10% charcoal double-stripped FBS and incubated at 37° C. in 5% CO2 for 18 h (O/N).
After 18 h of incubation, the medium in the T175 flask was changed with fresh DMEM+10% charcoal super-stripped serum. In a polypropylene tube, 2500 μL OptiMEM (Life Technologies, Cat #31985-062) was combined with expression plasmids for hFXR, hRXR, TK-ECRE-luc and pCMX-YFP. The tube was then briefly vortexed and incubated at room temperature for 5 minutes. Transfection reagent (X-tremeGENE HP from Roche, Cat #06 366 236 001) was added to the OptiMEM/plasmid mixture vortexed and incubated at room temperature for 20 minutes. Following incubation, the transfection reagent/DNA mixture complex was added to cells in the T175 flask and the cells were incubated at 37° C. in 5% CO2 for 18 h (O/N).
Compounds were serially diluted in DMSO and added to transfected CV-1 cells. The cells were then incubated for 18 hrs. The next day cells were lysed and examined for luminescence.

Sequence of hFXR (Q96RI1 whole entry): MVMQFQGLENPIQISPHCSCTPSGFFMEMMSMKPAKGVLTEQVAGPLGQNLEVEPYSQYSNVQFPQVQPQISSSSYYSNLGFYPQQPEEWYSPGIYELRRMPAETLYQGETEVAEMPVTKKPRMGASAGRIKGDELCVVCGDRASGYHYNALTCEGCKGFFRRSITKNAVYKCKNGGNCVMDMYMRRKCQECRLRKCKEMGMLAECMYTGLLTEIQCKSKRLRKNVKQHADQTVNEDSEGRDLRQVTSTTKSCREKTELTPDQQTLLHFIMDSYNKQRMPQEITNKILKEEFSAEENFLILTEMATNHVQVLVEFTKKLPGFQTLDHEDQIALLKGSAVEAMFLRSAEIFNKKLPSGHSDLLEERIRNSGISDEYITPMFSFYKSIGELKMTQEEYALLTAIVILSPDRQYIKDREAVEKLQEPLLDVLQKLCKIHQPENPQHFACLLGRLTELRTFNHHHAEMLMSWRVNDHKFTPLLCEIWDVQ
Sequence of hFXR (P19793 whole entry partner): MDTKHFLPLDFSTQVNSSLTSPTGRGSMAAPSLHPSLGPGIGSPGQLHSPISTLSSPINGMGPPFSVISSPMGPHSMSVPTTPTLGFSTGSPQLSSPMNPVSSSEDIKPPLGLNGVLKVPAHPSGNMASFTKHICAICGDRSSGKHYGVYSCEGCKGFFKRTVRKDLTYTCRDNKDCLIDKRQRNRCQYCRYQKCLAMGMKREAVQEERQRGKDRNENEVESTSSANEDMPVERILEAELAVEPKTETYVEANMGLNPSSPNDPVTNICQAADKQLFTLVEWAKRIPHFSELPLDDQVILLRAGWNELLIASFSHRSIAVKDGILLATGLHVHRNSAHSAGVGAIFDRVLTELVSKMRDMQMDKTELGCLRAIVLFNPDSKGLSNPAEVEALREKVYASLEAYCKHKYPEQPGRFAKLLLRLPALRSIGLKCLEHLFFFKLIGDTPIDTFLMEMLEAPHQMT

SMILES	EC50 [nM]
COC(=O)/C=C/c1ccnc(N(Cc2ccc(-c3ccc(N(C)C)nc3)cc2)C(=O)C2CCCCC2)c1 [Compound 5, (E)-Methyl 3-(2-(N-(4-(6-(dimethylamino)pyridin-3-yl)benzyl)cyclohexane-carboxamido)pyridin-4-yl)acrylate]	1000 to 10000
COC(=O)c1cc2cccc(N(Cc3ccc(-c4ccc(N(C)C)cc4)cc3)C(=O)C3CCCCC3)c2[nH]1 [Compound 10, Methyl 7-(N-((4′-(dimethylamino)-[1,1′-biphenyl]-4-yl)methyl)cyclohexanecarboxamido)-1H-indole-2-carboxylate]	≥ 10000
COC(=O)c1cc2c(N(Cc3ccc(-c4ccc(N(C)C)cc4)cc3)C(=O)C3CCCCC3)cccc2[nH]1 [Compound 11, Methyl 4-(N-((4′-(dimethylamino)-[1,1′-biphenyl]-4-yl)methyl)cyclohexanecarboxamido)-1H-indole-2-carboxylate]	≥ 10000
COC(=O)c1cc2cccc(N(Cc3ccc(-c4ccc(N(C)C)cc4)cc3)C(=O)C3CCCCC3)c2s1 [Compound 12, Methyl 7-(N-((4′-(dimethylamino)-[1,1′-biphenyl]-4-yl)methyl)cyclohexanecarboxamido) benzo[b]thiophene-2-carboxylate]	1000 to 10000
COC(=O)c1ccc2c(N(Cc3ccc(-c4ccc(N(C)C)cc4)cc3)C(=O)C3CCCCC3)nccc2c1 [Compound 13, Methyl 1-(N-((4′-(dimethylamino)-[1,1′-biphenyl]-4-yl)methyl)cyclohexanecarboxamido) isoquinoline-6-carboxylate]	≤ 1000
CCOC(=O)c1cnc2c(N(Cc3ccc(-c4ccc(N(C)C)cc4)cc3)C(=O)C3CCCCC3)cccc2c1 [Compound 14, Ethyl 8-(N-((4′-(dimethylamino)-[1,1′-biphenyl]-4-yl)methyl)cyclohexanecarboxamido) quinoline-3-carboxylate]	1000 to 10000
COC(=O)c1ccc2ccc(N(Cc3ccc(-c4ccc(N(C)C)cc4)cc3)C(=O)C3CCCCC3)cc2c1 [Compound 15, Methyl 7-(N-((4′-(dimethylamino)-[1,1′-biphenyl]-4-yl)methyl)cyclohexanecarboxamido)-2-naphthoate]	≥ 10000
COC(=O)c1cc(N(Cc2ccc(-c3ccc(N(C)C)cc3)cc2)C(=O)C2CCCCC2)c2ccccc2c1 [Compound 16, Methyl 4-(N-((4′-(dimethylamino)-[1,1′-biphenyl]-4-yl)methyl)cyclohexanecarboxamido)-2-naphthoate]	≥ 10000
COC(=O)c1ccc2c(N(Cc3ccc(-c4ccc(N(C)C)cc4)cc3)C(=O)C(C)(C)C)nccc2c1 [Compound 17, Methyl 1-(N-((4-(dimethylamino)-[1,1′-biphenyl]-4-yl)methyl)pivalamido)isoquinoline-6-carboxylate]	1000 to 10000
COC(=O)/C=C/c1ccnc(N(C[C@H]2CC[C@H](c3ccc(OC)c(C)c3)CC2)C(=O)C2CCCCC2)c1 [Compound 18, (E)-Methyl 3-(2-(N-((trans-4-(4-methoxy-3-methylphenyl)cyclohexyl)methyl)cyclohexanecarboxamido)pyridin-4-yl)acrylate]	≤ 1000
COC(=O)c1ccc2c(N(Cc3ccc(-c4ccc(OC)c(C)c4)cc3)C(=O)CC(C)(C)C)nccc2c1 [Compound 19, Methyl 1-(N-((4′-methoxy-3′-methyl-[1,1′-biphenyl]-4-yl)methyl)-3,3-dimethylbutanamido)isoquinoline-6-carboxylate]	≤ 1000
COC(=O)c1ccc2c(N(Cc3ccc(-c4ccc(OC)c(C)c4)cc3)C(=O)C3CCCCC3)nccc2c1 [Compound 20, Methyl 1-(N-((4′-methoxy-3′-methyl-[1,1′-biphenyl]-4-yl)methyl)cyclohexanecarboxamido) isoquinoline-6-carboxylate]	≤ 1000
CCOC(=O)c1ccc2c(N(Cc3ccc(-c4ccc(OC)c(C)c4)cc3)C(=O)C3CCCCC3)nccc2c1 [Compound 21, Ethyl 1-(N-((4′-methoxy-3′-methyl-[1,1′-biphenyl]-4-yl)methyl)cyclohexanecarboxamido) isoquinoline-6-carboxylate]	≤ 1000
COc1ccc(-c2ccc(CN(C(=O)C3CCCCC3)c3nccc4cc(C(=O)OC(C)C)ccc34)cc2)cc1C [Compound 22, Isopropyl 1-(N-((4′-methoxy-3′-methyl-[1,1′-biphenyl]-4-yl)methyl)cyclohexanecarboxamido) isoquinoline-6-carboxylate]	≤ 1000
CCOC(=O)c1ccc2c(N(Cc3ccc(-c4ccc(OC)c(C)c4)cc3)C(=O)C3CCCCC3)cccc2n1 [Compound 23, Ethyl 5-(N-((4′-methoxy-3′-methyl-[1,1′-biphenyl]-4-yl)methyl)cyclohexanecarboxamido) quinoline-2-carboxylate]	1000 to 10000
COC(=O)c1ccc2c(N(Cc3ccc(-c4ccc(OC)c(C#N)c4)cc3)C(=O)CC(C)(C)C)nccc2c1 [Compound 24, Methyl 1-(N-((3′-cyano-4′-methoxy-[1,1′-biphenyl]-4-yl)methyl)-3,3-dimethylbutanamido)isoquinoline-6-carboxylate]	≤ 1000
COC(=O)c1ccc2c(N(Cc3ccc(-c4ccc(OC)c(C)c4)cc3)C(=O)C3CCCCCC3)nccc2c1 [Compound 25, Methyl 1-(N-((4′-methoxy-3′-methyl-[1,1′-biphenyl]-4-yl)methyl)cycloheptanecarboxamido) isoquinoline-6-carboxylate]	≤ 1000
COC(=O)c1ccc2c(N(Cc3ccc(-c4ccc(OC)c(C)c4)c(C#N)c3)C(=O)CC(C)(C)C)nccc2c1 [Compound 26, Methyl 1-(N-((2-cyano-4′-methoxy-3′-methyl-[1,1′-biphenyl]-4-yl)methyl)-3,3-dimethylbutanamido)isoquinoline-6-carboxylate]	≤ 1000
COC(=O)c1ccc2c(N(Cc3ccc(-c4ccc(OC)c(C)c4)cc3)C(C)=O)nccc2c1 [Compound 27, Methyl 1-(N-((4′-methoxy-3′-methyl-[1,1′-biphenyl]-4-yl)methyl)acetamido)isoquinoline-6-carboxylate]	≥ 10000
COC(=O)c1ccc2c(N(Cc3ccc(-c4ccc(OC)c(C)c4)cc3)C(=O)C(C)C)nccc2c1 [Compound 28, Methyl 1-(N-((4′-methoxy-3′-methyl-[1,1′-biphenyl]-4-yl)methyl)isobutyramido) isoquinoline-6-carboxylate]	≤ 1000
COC(=O)c1ccc2c(N(Cc3ccc(-c4ccc(OC)c(F)c4F)cc3)C(=O)CC(C)(C)C)nccc2c1 [Compound 29, Methyl 1-(N-((2′,3′-difluoro-4′-methoxy-[1,1′-biphenyl]-4-yl)methyl)-3,3-dimethylbutanamido)isoquinoline-6-carboxylate]	≤ 1000
COC(=O)c1ccc2c(N(Cc3ccc(-c4ccc(C)c(C#N)c4)cc3)C(=O)CC(C)(C)C)nccc2c1 [Compound 30, Methyl 1-(N-((3′-cyano-4′-methyl-[1,1′-biphenyl]-4-yl)methyl)-3,3-dimethylbutanamido)isoquinoline-6-carboxylate]	≤ 1000
COC(=O)c1ccc2c(N(Cc3ccc(-c4ccc(C#N)c(Cl)c4)cc3)C(=O)CC(C)(C)C)nccc2c1 [Compound 31, Methyl 1-(N-((3′-chloro-4′-cyano-[1,1′-biphenyl]-4-yl)methyl)-3,3-dimethylbutanamido)isoquinoline-6-carboxylate]	≤ 1000
COC(=O)c1ccc2c(N(Cc3ccc(-c4ccc(Cl)c(C#N)c4)cc3)C(=O)CC(C)(C)C)nccc2c1 [Compound 32, Methyl 1-(N-((4′-chloro-3′-cyano-[1,1′-biphenyl]-4-yl)methyl)-3,3-dimethylbutanamido)isoquinoline-6-carboxylate]	1000 to 10000
COC(=O)c1ccc2c(N(Cc3ccc(-c4ccc(C(F)(F)F)nc4)cc3)C(=O)CC(C)(C)C)nccc2c1 [Compound 33, Methyl 1-(3,3-dimethyl-N-(4-(6-(trifluoromethyl)pyridin-3-yl)benzyl)butanamido)isoquinoline-6-carboxylate]	1000 to 10000
COC(=O)c1ccc2c(N(Cc3ccc(-c4ccc5c(c4)OC(F)(F)O5)cc3)C(=O)CC(C)(C)C)nccc2c1 [Compound 34, Methyl 1-(N-(4-(2,2-difluorobenzo[d][1,3]dioxol-5-yl)benzyl)-3,3-dimethylbutanamido)isoquinoline-6-carboxylate]	≤ 1000
COC(=O)c1ccc2c(N(Cc3ccc(-c4cnc(OC)c(F)c4)cc3)C(=O)CC(C)(C)C)nccc2c1 [Compound 35, Methyl 1-(N-(4-(5-fluoro-6-methoxypyridin-3-yl)benzyl)-3,3-dimethylbutanamido)isoquinoline-6-carboxylate]	≤ 1000
COC(=O)c1ccc2c(N(Cc3ccc(-c4cnc(OC)c(Cl)c4)cc3)C(=O)CC(C)(C)C)nccc2c1 [Compound 36, Methyl 1-(N-(4-(5-chloro-6-methoxypyridin-3-yl)benzyl)-3,3-dimethylbutanamido)isoquinoline-6-carboxylate]	≤ 1000
COC(=O)c1ccc2c(N(Cc3ccc(-c4cnc(OC)c(C)c4)cc3)C(=O)CC(C)(C)C)nccc2c1 [Compound 37, Methyl 1-(N-(4-(6-methoxy-5-methylpyridin-3-yl)benzyl)-3,3-dimethylbutanamido)isoquinoline-6-carboxylate]	≤ 1000
COC(=O)c1ccc2c(N(Cc3ccc(-c4ccc(N(C)C)nc4)cc3)C(=O)CC(C)(C)C)nccc2c1 [Compound 38, Methyl 1-(N-(4-(6-(dimethylamino)pyridin-3-yl)benzyl)-3,3-dimethylbutanamido)isoquinoline-6-carboxylate]	≤ 1000
